Holding throughout (assay): relative viability (nuclei count vs DMSO), 5 days (fraction); higher = more cells survive
Compound in experiment [1]: CCCS(=O)(=O)Nc1ccc(F)c(C(=O)c2c[nH]c3ncc(-c4ccc(Cl)cc4)cc23)c1F [Vemurafenib] + CC(=O)Nc1cccc(-n2c(=O)n(C3CC3)c(=O)c3c(Nc4ccc(I)cc4F)n(C)c(=O)c(C)c32)c1 [Trametinib] (partner 0.02 µM)
Summed up: (§1)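 Lung cancer cell lines in 1536-well plates got either a single drug or a fixed anchor-drug dose together with five library-drug doses (not always all listed) in √10 steps, by pin tool, on the day after seeding. Nuclei were counted after 5 days, and relative viability is the treated-to-vehicle ratio of nuclei counts. Values are medians of duplicate plates.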

Compound in experiment [2]: COc1cccc2cc(-c3nc([C@H]4CC[C@H](C(=O)O)CC4)n4ncnc(N)c34)[nH]c12 [OSI-027] + Cc1nc(NC(=O)N2CCC[C@H]2C(N)=O)sc1-c1ccnc(C(C)(C)C(F)(F)F)c1 [Alpelisib] (partner 2 µM)
Summed up:
as §1

Compound in experiment [3]: Cc1nc(NC(=O)N2CCC[C@H]2C(N)=O)sc1-c1ccnc(C(C)(C)C(F)(F)F)c1 [Alpelisib] + CCNC(=O)c1noc(-c2cc(C(C)C)c(O)cc2O)c1-c1ccc(CN2CCOCC2)cc1 [Luminespib] (partner 0.01 µM)
In outline: as §1

Compound in experiment [4]: Cc1nc(NC(=O)N2CCC[C@H]2C(N)=O)sc1-c1ccnc(C(C)(C)C(F)(F)F)c1 [Alpelisib] + CS(=O)(=O)CCNCc1ccc(-c2ccc3ncnc(Nc4ccc(OCc5cccc(F)c5)c(Cl)c4)c3c2)o1 [Lapatinib] (partner 2 µM)
Summed up: as §1

In the case of COR-L23, the relative viability came out at 0.619 in experiment [1] (first compound 0.03162 µM); 0.58 in experiment [1] (first compound 0.1 µM); 0.433 in experiment [1] (first compound 0.3162 µM); 0.691 in experiment [1] (first compound 1 µM); 0.876 in experiment [2] (first compound 0.01 µM); 0.784 in experiment [2] (first compound 0.03162 µM). Also, the relative viability turned out to be 0.696 in experiment [2] (first compound 0.1 µM); 0.486 in experiment [2] (first compound 0.3162 µM); 0.273 in experiment [2] (first compound 1 µM); 0.678 in experiment [3] (first compound 0.04 µM); 0.748 in experiment [3] (first compound 0.1265 µM); 0.696 in experiment [3] (first compound 0.4 µM). For the same cell line, the relative viability in experiment [3] (first compound 1.265 µM) is 0.62; in experiment [3] (first compound 4 µM) it was 0.477; in experiment [4] (first compound 0.04 µM), 1.03; in experiment [4] (first compound 0.1265 µM) it was 0.896; in experiment [4] (first compound 0.4 µM), 1.14; in experiment [4] (first compound 1.265 µM), 0.781. Also, the relative viability in experiment [4] (first compound 4 µM) was determined as 0.606.

Turning to EMC-BAC-2, the relative viability in experiment [1] (first compound 0.03162 µM) was 0.806; in experiment [1] (first compound 0.1 µM), 0.907; in experiment [1] (first compound 1 µM), 1.08; in experiment [2] (first compound 0.01 µM), 0.723; in experiment [2] (first compound 0.03162 µM), 0.727; in experiment [2] (first compound 0.1 µM) it was 0.647. In addition, the relative viability in experiment [2] (first compound 0.3162 µM) was 0.558; in experiment [2] (first compound 1 µM), 0.309; in experiment [3] (first compound 0.04 µM), 1.24; in experiment [3] (first compound 0.1265 µM) it was 1.03; in experiment [3] (first compound 0.4 µM), 1.16; in experiment [3] (first compound 1.265 µM) it was 0.932. Also, the relative viability in experiment [3] (first compound 4 µM) came out at 0.707; in experiment [4] (first compound 0.04 µM), 0.826; in experiment [4] (first compound 0.1265 µM) it was 0.844; in experiment [4] (first compound 0.4 µM), 0.84; in experiment [4] (first compound 1.265 µM), 0.68; in experiment [4] (first compound 4 µM), 0.628.

Regarding NCI-H3122, the relative viability in experiment [1] (first compound 0.03162 µM) stood at 0.219; in experiment [1] (first compound 0.1 µM) it was 0.271; in experiment [1] (first compound 0.3162 µM), 0.243; in experiment [1] (first compound 1 µM), 0.304; in experiment [2] (first compound 0.01 µM), 0.711; in experiment [2] (first compound 0.03162 µM) it was 0.762. Also, the relative viability is 0.657 in experiment [2] (first compound 0.1 µM); 0.405 in experiment [2] (first compound 0.3162 µM); 0.284 in experiment [2] (first compound 1 µM); 0.077 in experiment [3] (first compound 0.04 µM); 0.0664 in experiment [3] (first compound 0.1265 µM); 0.0978 in experiment [3] (first compound 0.4 µM). Besides, the relative viability in experiment [3] (first compound 1.265 µM) worked out at 0.0788; in experiment [3] (first compound 4 µM), 0.0851; in experiment [4] (first compound 0.04 µM), 1.01; in experiment [4] (first compound 0.1265 µM), 1.02; in experiment [4] (first compound 0.4 µM), 1.07; in experiment [4] (first compound 1.265 µM), 1.02. In addition, the relative viability in experiment [4] (first compound 4 µM) is 0.919.

In the case of NCI-H1395, the relative viability amounted to 1.04 in experiment [1] (first compound 0.03162 µM); 1.03 in experiment [1] (first compound 0.1 µM); 0.89 in experiment [1] (first compound 0.3162 µM); 0.971 in experiment [1] (first compound 1 µM); 1.04 in experiment [2] (first compound 0.01 µM); 1.14 in experiment [2] (first compound 0.03162 µM). Further, the relative viability in experiment [2] (first compound 0.1 µM) came out at 0.974; in experiment [2] (first compound 0.3162 µM) it was 0.93; in experiment [2] (first compound 1 µM), 0.757; in experiment [3] (first compound 0.04 µM) it was 0.568; in experiment [3] (first compound 0.1265 µM), 0.663; in experiment [3] (first compound 0.4 µM), 0.755. Moreover, the relative viability stood at 0.604 in experiment [3] (first compound 1.265 µM); 0.724 in experiment [3] (first compound 4 µM); 0.88 in experiment [4] (first compound 0.04 µM); 0.909 in experiment [4] (first compound 0.1265 µM); 1.15 in experiment [4] (first compound 0.4 µM); 0.75 in experiment [4] (first compound 1.265 µM). In addition, the relative viability in experiment [4] (first compound 4 µM) worked out at 0.921.

Consider NCI-H2023, for which the relative viability in experiment [1] (first compound 0.03162 µM) was determined as 0.592; in experiment [1] (first compound 0.1 µM) it was 0.489; in experiment [1] (first compound 0.3162 µM), 0.597; in experiment [1] (first compound 1 µM), 0.699; in experiment [2] (first compound 0.01 µM) it was 0.608; in experiment [2] (first compound 0.03162 µM), 0.499. Also, the relative viability was 0.505 in experiment [2] (first compound 0.1 µM); 0.34 in experiment [2] (first compound 0.3162 µM); 0.19 in experiment [2] (first compound 1 µM); 0.644 in experiment [3] (first compound 0.04 µM); 0.606 in experiment [3] (first compound 0.1265 µM); 0.679 in experiment [3] (first compound 0.4 µM). Moreover, the relative viability in experiment [3] (first compound 1.265 µM) is 0.505; in experiment [3] (first compound 4 µM), 0.4; in experiment [4] (first compound 0.04 µM), 0.717; in experiment [4] (first compound 0.1265 µM) it was 0.617; in experiment [4] (first compound 0.4 µM) it was 0.312; in experiment [4] (first compound 1.265 µM), 0.58. Besides, in experiment [4] (first compound 4 µM), the relative viability is 0.495.
